Data set [1] has as its target equine butyrylcholinesterase (BuChE). The arrangement: method as in Joubert et al., 2017 [23]. The note with it: ref Joubert et al., 2017 [23]; cited from earlier work.
The target in data set [2] is T1, BSA (Bos taurus, UniProt P02769).
T1 construct: purchased Sigma Aldrich (Kempton Park, South Africa)
Nature of the data set: Bovine serum albumin binding assay (fluorescence quenching). The note with it: BSA 1.00 × 10^−5 mol L^−1, 22 °C, ex 295 nm. From the text:
The mechanism of the fluorescent quenching of CM14 and CM15 to BSA is described using the Stern-Volmer equation:F0/F = 1 + ksv[Q] = 1 + kq τ0[Q] where F0 and F are the fluorescence intensities before and after the addition of the quencher, respectively; ksv is the dynamic quenching constant; kq is the quenching rate constant; [Q] is the concentration of quencher; τ0 is the average lifetime of the molecule without quencher and its value is considered to be 10^−8 s. The plots show a good linear relationship within the investigated concentrations of CM14 and CM15.
The interaction between coumarin derivatives (CM14 and CM15) and BSA were measured by fluorescence spectroscopy. BSA (≥98%) was obtained from Sigma Aldrich (Kempton Park, South Africa) and dissolved in a Tris–HCl (0.10 mol L^−1, pH = 7.4) buffer to form the BSA solution with a concentration of 1.00 × 10^−5 mol L^−1. A Tris–HCl buffer (0.10 mol L^−1, pH = 7.4) containing 0.10 mol L^−1 NaCl was selected to keep the pH value constant and to maintain the ionic strength of the solution. CM14 and CM15 stock solution (1.00 × 10^−3 mol L^−1) was prepared in MeOH. […] Fluorescence spectra were recorded on a Synergy Mx fluorescence plate reader (BioTek, Winooski, VT, USA). […] Fluorescence spectra were measured in the range of 315–500 nm at the excitation wavelength of 295 nm. […]

For data set [3], the system named is M. tuberculosis H37RvMA pMSP12:GFP. Nature of the data set: microbe, parasite or virus in culture. The class given is cell-based. The note with it: Mycobacterium tuberculosis.
The test system of data set [4] is SH-SY5Y cells. Nature of the data set: MPP+-induced cytotoxicity in SH-SY5Y cells (neuroprotection). The note with it: 1 µM compound, 1000 μM MPP+ for 48 h, untreated control 100%.
Data set [5] in a line: Chinese hamster ovary cell cytotoxicity MTT assay. The note with it: CHO cells. As to the method:
Cytotoxicity was evaluated on CHO cells utilizing a standard 3-[4,5-dimethylthiazol-2-yl]-2,5-diphenyl tetrazolium bromide (MTT) assay. The MTT is a yellow tetrazolium salt that is reduced to purple formazan in the presence of living cells. This reduction reaction was used to measure growth and chemosensitivity. The test samples were tested in triplicate on one occasion. Cells were seeded in microtiter plates at a density of 10^5 cells/mL and incubated for 24 h prior to exposure. The test samples were prepared to a 20 mg/mL stock solution in 10% methanol or 10% DMSO and were tested as a suspension if not properly dissolved. Test compounds were stored at −20 °C until use, and administered in volumes of 100 µL to the plated cells. Emetine was used as the reference drug in all experiments. […] Plates were developed after 44 h of exposure to the drug by the addition of a solution of MTT. After four hours, further incubation at 37 °C the supernatant was removed from the cells via suction and DMSO was added to each well to dissolve the reduced dye crystals. […] The amount of formazan produced in wells containing untreated cells only and growth medium only represent 100% survival and 0% survival respectively, and the amount in each treatment well was converted to a survival percentage relative to these two extremes. The IC50 values were obtained from full dose-response curves, using a non-linear dose-response curve fitting analysis via GraphPad Prism v.4 software.
In general terms: Tetrazolium assays rely on reduction of a dye to a coloured formazan, in cell work by metabolically active cells.

Data set [6] has as its system Mycobacterium tuberculosis H37Rv. Nature of the data set: microbe, parasite or virus in culture. The class given is cell-based. The note with it: 120 h, day 5, read-out: % M. tuberculosis Growth, Day 5; for activity at 1 µM: 1 µM compound; for activity at 50 µM: 50 µM compound; for activity at 100 µM: 100 µM compound.
The subject of data set [7] is M. tuberculosis H37Rv:pCHERRY3. The data set can be described thus: microbe, parasite or virus in culture. The class given is cell-based. The note with it: Mycobacterium tuberculosis.
For data set [8], the system named is electric eel AChE. The arrangement: method as in Joubert et al., 2017 [23]. The note with it: ref Joubert et al., 2017 [23]; cited from earlier work.
A short description of data set [9]: SH-SY5Y cytotoxicity MTT assay. The note with it: human, SH-SY5Y neuroblastoma cells, MTT, read-out: CC 50% SH-SY5Y (range where 50% cell toxicity will be observed). The data set is classed as cell-based, human. As to the method:
(§1) The human neuroblastoma cell line SH-SY5Y was generously donated by our collaborator at the Division of Molecular Biology and Human Biology, Stellenbosch University, Tygerberg, Cape Town. Cells were cultured in monolayer using Dulbecco Modified Eagles Medium (DMEM, Gibco, Life Technologies Ltd. Carlsbad, CA, USA) supplemented with 10% fetal bovine serum (FBS, Gibco, Life Technologies Ltd.) and 1% 100 U/mL penicillin and 100 μg/mL streptomycin (Lonza Group Ltd., Basel, Switzerland). Cells were grown at 37 °C, in a humidified atmosphere at 5% CO2. Media were replaced every two to three days and cells were sub-cultured by splitting with trypsin (Lonza Group Ltd.).
(§2) The standard MTT assay which measures cell metabolic activity was used to determine cytotoxicity of CM14, CM15 and CM9 as described by Mosmann. Briefly, SH-SY5Y cells were plated in flat bottom 96 well plates in growth medium as stated in Section 3.7.1 at a density of 7500 cells/well. Cells were allowed to adhere to the plate surface for 24 h and used media were replaced with fresh media containing test compounds at 10 µM, 50 µM and 100 µM. Vehicle control cells were treated with DMSO (solvent for dissolving test compounds) at a concentration similar to the amount contained in the highest concentration of test compounds. After 48 h, 10 µL of MTT solution (5 mg/mL) was added to each well and incubated for 4 h and the purple formazan formed was solubilized with 100 µL DMSO and plates were read spectrophotometrically to determine absorbance at 570 nm using a BMG Labtech POLARStar Omega multimodal plate reader.

The subject of data set [10] is SH-SY5Y cells. Nature of the data set: SH-SY5Y cytotoxicity MTT assay. The settings on record: 48 h. The data set is classed as cell-based, human. The method, then: as §1, §2
The test system of data set [11] is M. tuberculosis. The note with it: cited from earlier work.
Data set [12] concerns M. tuberculosis, H37Rv. The settings on record: cited from earlier work.

≈ marks a conversion by molar mass, not a printed value.

T1 sequence (P02769 25-607): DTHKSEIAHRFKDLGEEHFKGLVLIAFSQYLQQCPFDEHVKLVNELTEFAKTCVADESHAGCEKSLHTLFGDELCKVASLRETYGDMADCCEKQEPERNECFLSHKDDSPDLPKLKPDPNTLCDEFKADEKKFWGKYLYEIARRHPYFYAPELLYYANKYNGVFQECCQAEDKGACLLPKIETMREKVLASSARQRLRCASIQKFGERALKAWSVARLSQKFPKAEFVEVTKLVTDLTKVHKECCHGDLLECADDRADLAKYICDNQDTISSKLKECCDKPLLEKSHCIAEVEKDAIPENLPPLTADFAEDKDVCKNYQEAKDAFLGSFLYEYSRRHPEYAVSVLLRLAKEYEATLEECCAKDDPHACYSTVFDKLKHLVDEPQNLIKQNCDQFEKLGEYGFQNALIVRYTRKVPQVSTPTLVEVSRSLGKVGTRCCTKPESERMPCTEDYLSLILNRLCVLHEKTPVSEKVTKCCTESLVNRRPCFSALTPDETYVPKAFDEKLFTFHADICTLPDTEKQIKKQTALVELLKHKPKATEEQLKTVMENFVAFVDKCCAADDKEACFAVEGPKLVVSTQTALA

As to `Cc1c(C#N)c(=O)oc2cc(OCCN3CCN(Cc4ccc(Br)cc4)CC3)ccc12` [CM14], the IC50 (usually the concentration needed to halve the response being measured) in [1] is 13.3 µM; in data set [8], 38.5 µM. The “ksv (dynamic quenching constant)” value in data set [2] came out at 380000 mol/L. Besides, the MIC90 was 16.7 µM (≈ 8.06 µg/mL) in data set [3] and 45.2 µM (≈ 21.8 µg/mL) in data set [7]. In addition, the results for the MIC99 in data set [3] and in data set [7] were 28 µM (≈ 13.5 µg/mL) and 54.5 µM (≈ 26.3 µg/mL), respectively. Besides, the “cell survival restored after MPP+ exposure” value in data set [4] came out at 101.2 ± 6.00%. Also, the CC50 at 44 h in data set [5] is 41.2 µM. For the same compound, in data set [6], the activity at 1 µM was 99.5%. Also, the activity at 50 µM in data set [6] came to 4.4%. The activity at 100 µM in data set [6] amounted to 4.44%. Also, in [9], the CC50 at 48 h was 50 to 100 µM. The “effect on viability of SH-SY5Y cells” value in data set [10] (10 µM) is reported as “did not significantly affect”; in data set [10] (50 µM and 100 µM), “significantly (p < 0.001) affected”.

In the case of `O=c1cc(C(F)(F)F)c2ccc(OCCN3CCN(Cc4ccc(Br)cc4)CC3)cc2o1` [CM15], in [1], the IC50 was above 100 µM. In data set [2], the “ksv (dynamic quenching constant)” value stood at 488000 mol/L. In addition, in data set [3], the MIC90 was found to be 3.2 µM (≈ 1.64 µg/mL) and the MIC99 came out at 8.31 µM (≈ 4.25 µg/mL). In data set [4], the “cell survival restored after MPP+ exposure” value came to 81.05 ± 6.83%. The CC50 at 44 h in [5] is 26.3 µM. In addition, in [6], the activity at 1 µM turned out to be 107%, the activity at 50 µM is 6.68% and the activity at 100 µM was found to be 4.88%. In data set [7], this compound registered an MIC90 of 43.8 µM (≈ 22.4 µg/mL) and an MIC99 of 57.2 µM (≈ 29.2 µg/mL). In addition, in data set [8], the IC50 is above 100 µM. In addition, the CC50 at 48 h in [9] lay in the range of 10 to 50 µM. Moreover, the “effect on viability of SH-SY5Y cells” value in [10] (10 µM) is given as “did not significantly affect”. Besides, the “effect on viability of SH-SY5Y cells” value in [10] (50 µM and 100 µM) is listed as “significantly (p < 0.001) affected”.

For the compound `COc1ccc2cc(-n3cc(COc4nc(-c5ccccn5)sc4C(N)=O)nn3)c(=O)oc2c1` [Compound 3], the MIC (in general, the least concentration at which growth counts as inhibited) in [11] was 6.5 µM (≈ 3.1 µg/mL).

Take `CO[C@@H]1[C@@H](OC(N)=O)[C@@H](O)[C@H](Oc2ccc3c(O)c(NC(=O)c4ccc(O)c(CC=C(C)C)c4)c(=O)oc3c2C)OC1(C)C` [Novobiocin]: the MIC result in data set [12] is on record as “approximately 6.5 µM”.

Values taken from publication PMC6151660 (Molecules : A Journal of Synthetic Chemistry and Natural …, 2017).
